Laboratory results from US6878546B2, “Product and method for swelling a cell nucleus without DNA replication” (Brandeis University, priority 1993, dated 2005).
Like-named read-outs stand apart in the source and are kept apart here.

What was measured:
[1] = tested on: Xenopus red blood cells nuclei; conditions: for Cpm Incorporated After X Minutes: 23° C.
Description: The affect of cAMP on DNA replication in activated Xenopus red blood cells was determined.
Cyclic-AMP was then added to separate aliquots to yield final concentrations of 0.0 μM, 0.1 μM, 1.0 μM, or 10 μM.
Each aliquot was warmed to 23° C. and sampled over time to determine P^32-dCTP incorporation into replicated DNA. At each time point, a 7 μl aliquot was taken, frozen on dry ice, and later thawed and digested by the addition of 10 μl replication sample buffer (80 mM Tris (pH 8.0), 8 mM EGTA, 0.13% phosphoric acid, 10% Ficoll, 5% SDS, 0.2% bromphenol blue) containing proteinase K (1.0 mg/ml) for 2 hours at room temperature. Incorporated radioactivity was analyzed by electrophoresis on a 0.8% agarose gel (50V, 20 hours) followed by vacuum drying the gel and counting on a Betascope.

erythrocyte nuclei = test: Supplements to CSF extract: chromatin assembly and later DNA synthesis in activating egg extract; type: biochemical, Xenopus
Excerpt: After further pretreatment in CSF extract, the nuclei may be activated by adding 9 volumes of “prepared activating egg extract.” DNA replication, measured by incorporation of labelled nucleotides into DNA strands, may be used to determine the extent to which prior treatment in CSF extract enhances nuclear activation in activating extract. Labelled nucleotides useful in measuring nuclear DNA replication include microcurie amounts of P^32-dCTP for radioactive measurement of newly synthesized DNA, 16-50 μM biotinylated-dUTP or BrdUTP for fluorescent measurement of newly synthesized DNA, and 250 μM BrdUTP for density labelling of newly synthesized DNA.
Several supplements to CSF extract, in the proper concentration, increased the ability of CSF extract to enhance activation activity without resulting in premature DNA synthesis activity. Useful supplements include β-glycerol-PO4, Ca^2+, and protein kinase inhibitors. The addition of β-glycerol-PO4 increased the rate at which negatively supercoiled DNA relaxed in CSF extract and was subsequently assembled into chromatin. […] Beta-glycerol-PO4 is an inhibitor of phosphatase activity and may act by increasing the level of the phosphorylated functionally-active form of topoisomerase II in the CSF extract. […]

[2] = Rate of DNA replication in activating egg extract with nocodazole; type: biochemical; conditions: 5 μg/ml nocodazole added to activating egg extract
[3] = tested on: Xenopus erythrocyte nuclei; test: Induction optimization: P^32-dCTP incorporation into DNA of pretreated nuclei in activating egg extract, cycloheximide added at different times; type: biochemical; conditions: total 60 minutes at 25° C.
Description: Induction optimization was carried for Xenopus as describe below (see also Example 2, infra, for further optimization experiments). Xenopus erythrocyte nuclei were isolated and pretreated with lysolecithin and trypsin as described in Example 2 (described below). An activating egg extract was prepared from hardened eggs which were induced for 10 minutes as described above. Both the activating egg extract and the pretreated nuclei were kept on ice (about 4° C.). The activating egg extract was supplemented with 1 mM ATP (not used in the other examples described herein), 10 μg/ml creatine phosphokinase, 10 mM creatine phosphate, 10 μCi P^32-dCTP and combined with pretreated nuclei (about 200 nuclei/μl). Individual aliquots containing activated nuclei were shifted from 4° C. to 25° C. […] After 60 minutes, P^32-dCTP incorporation into newly synthesized DNA was determined.

[4] = tested on: Xenopus red blood cells nuclei; test: DNA replication in activated nuclei in caffeine supplemented activating egg extract; type: biochemical; conditions: caffeine at 1.0 mM in the presence of 0.3 μM cAMP; compared with 0.2 mM and 5.0 mM; FIG. 1
Description: The experimental conditions used were as described in Example 1 with the following changes: the concentration of cAMP was set at 0.3 μM and caffeine was added to the activating egg extract to a concentration of either 0.2 mM, 1.0 mM, or 5.0 mM.

[5] = tested on: Xenopus erythrocyte nuclei; test: DNA replication in activating egg extract after further pretreatment in CSF extract supplemented with DMAP; type: biochemical; conditions: 5 mM DMAP in CSF extract; FIG. 2
Description: Addition of 6-dimethylaminopurine (DMAP) to CSF extracts was used to further pretreat Xenopus erythrocyte nuclei and stimulate subsequent DNA replication in activating egg extract. DMAP can be used to inhibit nucleic acid synthesis and protein kinase activity. Xenopus erythrocyte nuclei were isolated and pretreated as described in Example 1 above, and incubated in thawed “prepared CSF extract” supplemented with 80 mM β-glycerol-PO4, and 5 μg/ml nocodazole at a concentration of 2000 nuclei/μl. Further pretreatment was carried out by incubation for 30 minutes at 4° C., then 30 minutes at 25° C., then 60 minutes at 4° C. Half the samples were supplemented with 5 mM DMAP before addition of the nuclei. After the two hours of incubation, each sample was diluted with 9 volumes of activating egg extract, supplemented with 5 μg/ml nocodazole (this dose of nocodazole slows down the rate of replication) and approximately 160 μCi/ml P^32-dCTP. Aliquots were removed over time to measure DNA replication.

[6] = tested on: human fetal liver erythroid cell nuclei; test: Activation of human fetal liver erythroid cell nuclei in activating extract (swelling, replication, chromosome formation); type: biochemical; conditions: aphidicolin added at T=0
Description: Step 5: Activation of erythroid cell nuclei. Nuclear swelling, envelope formation, and replication were carried out on human fetal liver erythroid cell nuclei prepared using the optimal conditions described in steps 1-4 above. […] The resulting nuclei concentration was about 200/μl.
The following measurement were taken: DNA synthesis was monitored using extract containing P^32dCTP by gel electrophoresis; histone H1 kinase was measured; and samples, labelled with biotinylated-dUTP were taken for cytological analysis of DNA replication and nuclear envelope breakdown.
Experiments were also carried out to determine whether nuclear swelling was dependent on DNA synthesis, by activating nucleic in the presence of aphidicolin (added at T=0).
Swelled and replicated nuclei were treated with Cyclin-Δ90 or CSF extract. Cyclin-Δ90 was added to activating extract to obtain prophase mitotic chromosomes, while CSF extract was added to obtain metaphase chromosomes and nuclear envelope breakdown.

SMILES: Nc1ncnc2c1ncn2[C@@H]1O[C@@H]2COP(=O)(O)O[C@H]2[C@H]1O [Cyclic AMP, Cyclic-AMP]
- DNA replication in activated nuclei compared to without any cAMP ([1]; 0.1 μM cAMP): increased
- DNA replication in activated nuclei compared to without any cAMP ([1]; 1.0 μM cAMP, compared with 0.1 μM): greater increase
- DNA replication in activated nuclei compared to without any cAMP ([1]; 10 μM cAMP): inhibits DNA replication
- Cpm Incorporated After X Minutes ([1]; 0.1 Micromoles of Cyclic AMP Added, after 0 minutes): 14 Cpm
- Cpm Incorporated After X Minutes ([1]; 0.1 Micromoles of Cyclic AMP Added, after 45 minutes): 51 Cpm
- Cpm Incorporated After X Minutes ([1]; 0.1 Micromoles of Cyclic AMP Added, after 90 minutes): 68 Cpm
- Cpm Incorporated After X Minutes ([1]; 0.1 Micromoles of Cyclic AMP Added, after 135 minutes): 290 Cpm
- Cpm Incorporated After X Minutes ([1]; 0.1 Micromoles of Cyclic AMP Added, after 180 minutes): 1,141 Cpm
- Cpm Incorporated After X Minutes ([1]; 0.1 Micromoles of Cyclic AMP Added, after 240 minutes): 2,945 Cpm
- Cpm Incorporated After X Minutes ([1]; 0.1 Micromoles of Cyclic AMP Added, after 300 minutes): 2,692 Cpm
- Cpm Incorporated After X Minutes ([1]; 1.0 Micromoles of Cyclic AMP Added, after 0 minutes): 10 Cpm
- Cpm Incorporated After X Minutes ([1]; 1.0 Micromoles of Cyclic AMP Added, after 45 minutes): 14 Cpm
- Cpm Incorporated After X Minutes ([1]; 1.0 Micromoles of Cyclic AMP Added, after 90 minutes): 56 Cpm
- Cpm Incorporated After X Minutes ([1]; 1.0 Micromoles of Cyclic AMP Added, after 135 minutes): 564 Cpm
- Cpm Incorporated After X Minutes ([1]; 1.0 Micromoles of Cyclic AMP Added, after 180 minutes): 2,316 Cpm
- Cpm Incorporated After X Minutes ([1]; 1.0 Micromoles of Cyclic AMP Added, after 240 minutes): 4,484 Cpm
- Cpm Incorporated After X Minutes ([1]; 1.0 Micromoles of Cyclic AMP Added, after 300 minutes): 5,504 Cpm
- Cpm Incorporated After X Minutes ([1]; 10 Micromoles of Cyclic AMP Added, after 0 minutes): 43 Cpm
- Cpm Incorporated After X Minutes ([1]; 10 Micromoles of Cyclic AMP Added, after 45 minutes): 34 Cpm
- Cpm Incorporated After X Minutes ([1]; 10 Micromoles of Cyclic AMP Added, after 90 minutes): 31 Cpm
- Cpm Incorporated After X Minutes ([1]; 10 Micromoles of Cyclic AMP Added, after 135 minutes): 35 Cpm
- Cpm Incorporated After X Minutes ([1]; 10 Micromoles of Cyclic AMP Added, after 180 minutes): 85 Cpm
- Cpm Incorporated After X Minutes ([1]; 10 Micromoles of Cyclic AMP Added, after 240 minutes): 168 Cpm
- Cpm Incorporated After X Minutes ([1]; 10 Micromoles of Cyclic AMP Added, after 300 minutes): 571 Cpm

SMILES: [Ca+2].[Cl-].[Cl-] [Ca^2+, CaCl2]
- amount and rate of DNA synthesis in erythrocyte nuclei after addition of activating egg extract (erythrocyte nuclei; 100 μM Ca^2+ added to CSF extract): increased both the amount and the rate of DNA synthesis

SMILES: COC(=O)Nc1nc2ccc(C(=O)c3cccs3)cc2[nH]1 [nocodazole]
- rate of DNA replication [2]: decreases

SMILES: C[C@@H]1C[C@@H]([C@H](O)CC2CC(=O)NC(=O)C2)C(=O)[C@@H](C)C1 [CHM, Cycloheximide]
- Cpm Incorporated into DNA ([3]; CHM 100 μg/ml added at 0 minutes, extract from eggs induced 10 minutes): 2,894 Cpm
- Cpm Incorporated into DNA ([3]; CHM 100 μg/ml added at 5 minutes): 4,208 Cpm
- Cpm Incorporated into DNA ([3]; CHM 100 μg/ml added at 15 minutes): 4,937 Cpm
- Cpm Incorporated into DNA ([3]; CHM 100 μg/ml added at 30 minutes): 3,775 Cpm
- Cpm Incorporated into DNA ([3]; CHM 100 μg/ml added at 45 minutes): 2,314 Cpm

SMILES: Cn1c(=O)c2c(ncn2C)n(C)c1=O [caffeine]
- initial rate and extent of DNA replication in activated nuclei [4]: highest initial rate and extent of DNA replication

SMILES: CN(C)c1ncnc2nc[nH]c12 [DMAP, 6-dimethylaminopurine]
- initial rate and total amount of DNA synthesis [5]: increased
- lag time before the onset of replication [5]: decreased

SMILES: C[C@@]1(CO)[C@H](O)CC[C@@]2(C)[C@H]1CC[C@H]1C[C@@H]3C[C@@]12CC[C@]3(O)CO [aphidicolin]
- replication (biotin labelling) [6]: no replication took place
- nuclear swelling ([6]; absence of replication): many nuclei swelled significantly

SMILES: O=P(O)(O)OC(CO)CO [β-glycerol-PO4]
- chromatin assembly in CSF extract (erythrocyte nuclei; about 80 mM β-glycerol-PO4): aid in chromatin assembly without causing DNA synthesis
